From article PMC7195466, “A common allosteric mechanism regulates homeostatic inactivation of auxin and gibberellin” (Nature Communications, 2020) come the findings set out here.

For test [1], the target named is T1, OsGA2ox3 (GA 2-oxidase 3) (Oryza sativa, UniProt Q8S0S6).
T1 construct: gene GA2OX3; full-length coding region in pGEX6P1, GST tag cut off with PreScission protease, E. coli Rosetta (DE3) pLysS; monomer, homotetramer with GA4
Briefly: X-ray crystal structure, […] Å. It counts as binding. To be noted: Fe(II) absent.

Test [2] concerns the target T2, OsGA2ox3 (GA 2-oxidase 3) (Oryza sativa, UniProt Q8S0S6, K308A).
T2 construct: gene GA2OX3; full-length coding region in pGEX6P1, GST tag cut off with PreScission protease, E. coli Rosetta (DE3) pLysS; monomer, homotetramer with GA4
Briefly: GC-SIM-MS of GA34, activity after incubation with GA4. As to conditions: interface-site mutant; 2-oxoglutarate, Fe(II), pH 7.9, 30 °C. It counts as biochemical. On the procedure:
GC-SIM-MS of GA34, activity after incubation with GA4 on OsGA2ox3 (GA 2-oxidase 3) | a single mutation, such as […] or 3Mu, led to no activation by GA4

For the next test, the target named is T3, OsGA2ox6 (Oryza sativa, UniProt Q7XP65).
T3 construct: gene GA2OX6; full-length coding region in pGEX6P1 (GST fusion); C20-type; monomer, dimer with GA4
T3 sequence (Q7XP65 1-358): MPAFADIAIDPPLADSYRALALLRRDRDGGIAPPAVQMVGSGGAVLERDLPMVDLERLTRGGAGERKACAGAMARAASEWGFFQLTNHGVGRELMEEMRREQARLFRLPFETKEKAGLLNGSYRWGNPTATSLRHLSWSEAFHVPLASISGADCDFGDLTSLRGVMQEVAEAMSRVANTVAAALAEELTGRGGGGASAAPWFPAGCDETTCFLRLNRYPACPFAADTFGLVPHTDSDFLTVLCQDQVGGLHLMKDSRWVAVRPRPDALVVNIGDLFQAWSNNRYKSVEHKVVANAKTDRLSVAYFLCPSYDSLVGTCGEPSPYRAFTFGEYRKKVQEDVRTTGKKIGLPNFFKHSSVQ
Briefly: gel filtration, ligand-induced dimerization. Type of test: binding. To be noted: 10 mM GA4 incubation, 18 h, 25 °C, pH 7.4; interface (allosteric).

For test [3], the target named is T4, OsGA2ox3 (GA 2-oxidase 3) (Oryza sativa, UniProt Q8S0S6, C194A/K308A/K313A).
T4 construct: gene GA2OX3; full-length coding region in pGEX6P1, GST tag cut off with PreScission protease, E. coli Rosetta (DE3) pLysS; monomer, homotetramer with GA4
The experiment in a line: GC-SIM-MS of GA34, activity after incubation with GA4. It counts as biochemical. To be noted: 3Mu, interface-site mutant; same.

Test [4] deals with T5, OsDAO (dioxygenase for auxin oxidation) (Oryza sativa, UniProt Q7XKU5).
T5 construct: gene DAO; full-length coding region in pGEX6P1, GST tag cut off with PreScission protease, E. coli Rosetta (DE3) pLysS; monomer, dimer with IAA
T5 sequence (Q7XKU5 1-300): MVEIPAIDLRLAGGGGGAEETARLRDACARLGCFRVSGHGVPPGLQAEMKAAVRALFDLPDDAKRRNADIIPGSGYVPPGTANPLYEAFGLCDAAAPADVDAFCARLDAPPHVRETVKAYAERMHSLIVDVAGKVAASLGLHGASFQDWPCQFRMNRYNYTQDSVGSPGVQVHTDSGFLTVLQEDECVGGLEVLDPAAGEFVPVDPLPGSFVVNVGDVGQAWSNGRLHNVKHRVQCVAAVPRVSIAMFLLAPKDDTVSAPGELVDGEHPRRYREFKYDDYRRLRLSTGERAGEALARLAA
The experiment in a line: X-ray crystal structure, […] Å. Type of test: binding. As to conditions: allosteric, two IAA molecules at the dimer interface; crystallised with 2-oxoglutarate.

T1 sequence (Q8S0S6 whole entry): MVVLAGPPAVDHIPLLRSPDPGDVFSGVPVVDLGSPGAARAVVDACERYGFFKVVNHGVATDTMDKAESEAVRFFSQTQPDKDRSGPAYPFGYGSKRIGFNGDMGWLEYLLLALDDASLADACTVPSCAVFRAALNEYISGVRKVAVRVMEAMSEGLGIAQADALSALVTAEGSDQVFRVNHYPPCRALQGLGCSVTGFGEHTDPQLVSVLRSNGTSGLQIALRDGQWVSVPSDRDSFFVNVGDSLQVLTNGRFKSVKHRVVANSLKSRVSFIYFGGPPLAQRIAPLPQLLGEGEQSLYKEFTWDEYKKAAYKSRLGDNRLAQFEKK
T4 sequence (Q8S0S6 whole entry C194A/K308A/K313A): as the sequence (Q8S0S6 whole entry) above, with C194A, K308A, K313A counted along it
T2 sequence (Q8S0S6 whole entry K308A): as the sequence (Q8S0S6 whole entry) above, with K308A counted along it

Take `O=C(O)CCC(=O)C(=O)O` [2OG]: the “X-ray crystal structure, 2.15 Å” value in test [1] (active site, co-substrate, GA4 present) is “the amino acids interacting with 2OG (R269, S271, and Y183”.
`C=C1C[C@]23C[C@H]1CC[C@H]2[C@@]12CC[C@H](O)[C@@](C)(C(=O)O1)[C@H]2[C@@H]3C(=O)O` [GA4]: the “GC-SIM-MS of GA34, activity after incubation with GA4” value in test [2] is given as “a single mutation, such as K308A or 3Mu, led to no activation by GA4”; in test [3], “no activation of 3Mu occurred at all”. Moreover, the “gel filtration, ligand-induced dimerization” value on OsGA2ox6 was “The presence of GA4 induced a new peak of its dimer form”. Further, in test [1] (active site and second site (allosteric, subunit interface), 2-oxoglutarate present), the “X-ray crystal structure, 2.15 Å” value was “We crystallized the enzyme with the co-substrates, 2OG and GA4 in the absence Fe(II)”.
Regarding `O=C(O)Cc1c[nH]c2ccccc12` [indole-3-acetic acid], the “X-ray crystal structure, 2.0 Å” value in test [4] was “We elucidated the crystal structure of OsDAO complexed with its substrate, IAA”.
